Test results taken from patent US20070275954A1 (published 2007).

melting point [°C]	Compound
280 to 290	CNC1=Nc2ncccc2C(c2cnc[nH]2)=NC1c1cccs1 (stereo not shown)
215 to 217	Cn1ccnc1C1=NC(c2cccs2)C(N2CCC2)=Nc2ncccc21 (stereo not shown)
165 to 170	CNC1=Nc2ncccc2C(c2ccc[nH]2)=NC1c1cccs1 (stereo not shown)
187 to 194	CNC1=Nc2ncccc2C(c2cn[nH]c2)=NC1c1cccs1 (stereo not shown)
269 to 272	CNC1=Nc2ncccc2C(c2cc[nH]n2)=NC1c1cccs1 (stereo not shown)
110 to 114	CNC1=Nc2ncccc2C(c2ccoc2)=NC1c1cccs1 (stereo not shown)
168 to 172	c1csc(C2N=C(c3cc[nH]c3)c3cccnc3N=C2N2CCC2)c1 (stereo not shown)
85 to 88	CNC1=Nc2ncccc2C(c2ccsc2)=NC1c1cccs1 (stereo not shown)
90 to 95	c1csc(C2N=C(c3ccsc3)c3cccnc3N=C2N2CCC2)c1 (stereo not shown)
90 to 96	c1csc(C2N=C(c3ccsc3)c3cccnc3N=C2NC2CC2)c1 (stereo not shown)
